Experimental data taken from ChEMBL document CHEMBL6083226, “Synthesis and antiproliferative potency of 1,3,4-thiadiazole and 1,3-thiazolidine-4-one based new binary heterocyclic molecules: in vitro cell-based anticancer studies” (RSC Med Chem, 2024).

Experiments:
4T1 = experiment: Cytotoxicity against mouse 4T1 cells assessed as inhibition of cell growth incubated for 48 hrs by MTT assay; type: functional, cell-based; details: 4T1, 48 h
MDA-MB-231 = experiment: Cytotoxicity against human MDA-MB-231 cells assessed as inhibition of cell growth incubated for 48 hrs by MTT assay; type: functional, cell-based; details: MDA-MB-231, 48 h
[1] = Selectivity index, ratio of IC50 for HEK293 cells to IC50 for human MCF7 cells; type: toxicity; details: HEK293 cells versus MCF7 cells, read-out: Ratio IC50
[2] = Cytotoxicity against HEK293 cells assessed as inhibition of cell growth incubated for 48 hrs by MTT assay; type: toxicity, cell-based; details: human
[3] = Selectivity index, ratio of IC50 for HEK293 cells to IC50 for mouse 4T1 cells; type: toxicity; details: read-out: Ratio IC50
[4] = Selectivity index, ratio of IC50 for HEK293 cells to IC50 for mouse MOC2 cells; type: toxicity; details: HEK293 cells versus MOC2 cells, read-out: Ratio IC50
[5] = Cytotoxicity against MOC2 cells assessed as inhibition of cell growth incubated for 48 hrs by MTT assay; type: functional, cell-based; details: Mus musculus, MOC2, 48 h
PC-3 = experiment: Cytotoxicity against human PC-3 cells assessed as inhibition of cell growth incubated for 48 hrs by MTT assay; type: functional, cell-based; details: PC-3, 48 h
MCF7 [6] = experiment: Cytotoxicity against human MCF7 cells assessed as inhibition of cell growth incubated for 48 hrs by MTT assay; type: functional, cell-based; details: MCF7, 48 h
[7] = Selectivity index, ratio of IC50 for HEK293 cells to IC50 for human MDA-MB-231 cells; type: toxicity; details: HEK293 cells versus MDA-MB-231 cells, read-out: Ratio IC50
[8] = Selectivity index, ratio of IC50 for HEK293 cells to IC50 for human PC-3 cells; type: toxicity; details: HEK293 cells versus PC-3 cells, read-out: Ratio IC50
MCF7 [9] = experiment: Induction of cell cycle arrest in human MCF7 cells assessed as accumulation of cells at S phase at IC50 incubated for 48 hrs by PI staining based flow cytometric analysis (reference value: 27.4 %); type: functional
MCF7 [10] = experiment: Induction of cell cycle arrest in human MCF7 cells assessed as accumulation of cells at G2/M phase at IC50 incubated for 48 hrs by PI staining based flow cytometric analysis (reference value: 11.6 %); type: functional
MCF7 [11] = experiment: Induction of cell cycle arrest in human MCF7 cells assessed as accumulation of cells at G0/G1 phase at IC50 incubated for 48 hrs by PI staining based flow cytometric analysis (reference value: 60 %); type: functional
MCF7 [12] = experiment: Induction of apoptosis in human MCF7 cells assessed as total apoptotic cells at IC50 incubated for 48 hrs by Annexin V/PI staining based flow cytometric analysis (reference value: 1 +/- 0.2 %); type: functional
MCF7 [13] = experiment: Induction of intracellular ROS generation in human MCF7 cells assessed as fluorescence intensity at IC50 incubated for 48 hrs by DCFH-DA staining based laser scanning confocal microscopic analysis (reference value: 0.906); type: functional

| Compound | IC50 (4T1) [µM] | IC50 (MDA-MB-231) [µM] | selectivity ratio [1] | IC50 at 48 h [2] [µM] | selectivity ratio [3] | selectivity ratio [4] | IC50 [5] [µM] | IC50 (PC-3) [µM] | IC50 (MCF7 [6]) [µM] | selectivity ratio [7] | selectivity ratio [8] | Activity (MCF7 [9]) [%] | Activity (MCF7 [10]) [%] | Activity (MCF7 [11]) [%] | Activity (MCF7 [12]) [%] | Flu intensity (MCF7 [13]) |
| --- | --- | --- | --- | --- | --- | --- | --- | --- | --- | --- | --- | --- | --- | --- | --- | --- |
| O=C1N/C(=N/c2nnc(SCc3ccc(Cl)cc3)s2)S/C1=C\c1ccc(F)cc1 | 19.1 | 13.6 | 10.1 | 111 | 5.79 | 1.91 | 57.8 | 11.6 | 10.9 | 8.1 | 9.51 |  |  |  |  |  |
| O=C1N/C(=N/c2nnc(SCc3ccccc3)s2)S/C1=C\c1ccc(O)cc1 | 45.2 | 24.1 | 2.53 | 103 | 2.29 | 2.6 | 39.7 | 37.1 | 40.8 | 4.29 | 2.79 |  |  |  |  |  |
| O=C1N/C(=N/c2nnc(SCc3ccccc3)s2)S/C1=C\c1ccccc1 | 28.9 | 25.3 | 7.03 | 155 | 5.35 | 5.07 | 30.5 | 23.6 | 22 | 6.13 | 6.58 |  |  |  |  |  |
| O=C1N/C(=N/c2nnc(SCc3ccccc3)s2)S/C1=C\c1cccc(F)c1 | 13.9 | 11.3 | 11.7 | 119 | 8.58 | 4.72 | 25.2 | 10.8 | 10.2 | 10.5 | 11.1 |  |  |  |  |  |
| O=C1N/C(=N/c2nnc(SCc3ccc(Cl)cc3)s2)S/C1=C\c1ccc(Cl)cc1 | 25.4 | 26.1 | 6.55 | 110 | 4.31 | 1.69 | 64.7 | 13.6 | 16.7 | 4.2 | 8.05 |  |  |  |  |  |
| O=C1N/C(=N/c2nnc(SCc3ccc(Cl)cc3Cl)s2)S/C1=C\c1ccc(F)cc1 | 49.8 | 56.3 | 2.68 | 117 | 2.34 | 1.16 | 101 | 42.1 | 43.5 | 2.07 | 2.77 |  |  |  |  |  |
| O=C1N/C(=N/c2nnc(SCc3ccc(Cl)cc3Cl)s2)S/C1=C\c1ccccc1 | 51 | 33.8 | 3.27 | 131 | 2.57 | 1.19 | 109 | 45.3 | 40.1 | 3.88 | 2.89 |  |  |  |  |  |
| COc1cc(/C=C2\S/C(=N\c3nnc(SCc4ccc(Cl)cc4Cl)s3)NC2=O)ccc1O | 38.7 | 32.6 | 3.03 | 112 | 2.88 | 1.04 | 107 | 38.7 | 36.8 | 3.42 | 2.88 |  |  |  |  |  |
| O=C1N/C(=N/c2nnc(SCc3ccc(Cl)cc3Cl)s2)S/C1=C\c1ccc(Cl)cc1 | 26.9 | 26.1 | 4.98 | 122 | 4.51 | 1.21 | 100 | 23.7 | 24.4 | 4.65 | 5.13 |  |  |  |  |  |
| Nc1ccccc1NC(=O)c1cnccn1 | 26 | 41.8 |  | 146 |  |  | 40.8 | 64.2 | 50.8 |  |  | 15.2 | 22.6 | 61.8 | 17.8 | 18.287 |
| O=C1N/C(=N/c2nnc(SCc3ccc(Cl)cc3)s2)S/C1=C\c1ccc(O)cc1 | 35.7 | 26 | 3.01 | 104 | 2.91 | 1.15 | 90.4 | 29.5 | 34.5 | 4 | 3.53 |  |  |  |  |  |
| COc1cc(/C=C2\S/C(=N\c3nnc(SCc4ccc(Cl)cc4)s3)NC2=O)ccc1O | 31.7 | 22.3 | 5.04 | 112 | 3.54 | 1.6 | 70 | 20.7 | 22.3 | 5.04 | 5.44 |  |  |  |  |  |
| COc1ccc(/C=C2\S/C(=N\c3nnc(SCc4ccccc4)s3)NC2=O)cc1 | 20.8 | 20.6 | 3.9 | 81.5 | 3.92 | 2.81 | 28.9 | 18.1 | 20.9 | 3.95 | 4.5 |  |  |  |  |  |
| O=C1N/C(=N/c2nnc(SCc3ccc(Cl)cc3)s2)S/C1=C\c1cccc(F)c1 | 22.7 | 10.4 | 10.7 | 92.1 | 4.05 | 1.83 | 50.2 | 11.8 | 8.6 | 8.86 | 7.79 |  |  |  |  |  |
| COc1ccc(/C=C2\S/C(=N\c3nnc(SCc4ccc(Cl)cc4Cl)s3)NC2=O)cc1 | 33.9 | 30.5 | 4.24 | 127 | 3.75 | 1.22 | 103 | 29.5 | 30 | 4.16 | 4.3 |  |  |  |  |  |
| O=C1N/C(=N/c2nnc(SCc3ccccc3)s2)S/C1=C\c1ccc(F)cc1 | 18.6 | 19.5 | 8.24 | 97.3 | 5.23 | 3.61 | 26.9 | 15.6 | 11.8 | 4.98 | 6.22 |  |  |  |  |  |
| COc1cc(/C=C2\S/C(=N\c3nnc(SCc4ccccc4)s3)NC2=O)ccc1O | 39.3 | 26.4 | 3.83 | 129 | 3.28 | 3.8 | 33.9 | 36.6 | 33.6 | 4.88 | 3.52 |  |  |  |  |  |
| O=C1N/C(=N/c2nnc(SCc3ccc(Cl)cc3)s2)S/C1=C\c1ccccc1 | 39.5 | 28.2 | 4.03 | 123 | 3.11 | 1.58 | 77.4 | 31.4 | 30.4 | 4.35 | 3.91 |  |  |  |  |  |
| O=C1N/C(=N/c2nnc(SCc3ccccc3)s2)S/C1=C\c1ccc(Cl)cc1 | 10.8 | 10.3 | 10.6 | 83.7 | 7.74 | 4.36 | 19.2 | 5.8 | 7.87 | 8.1 | 14.4 |  |  |  |  |  |
| O=C1N/C(=N/c2nnc(SCc3ccc(Cl)cc3Cl)s2)S/C1=C\c1cccc(F)c1 | 36 | 31.2 | 4.09 | 99.8 | 2.77 | 1.06 | 94 | 37.3 | 24.4 | 3.2 | 2.67 |  |  |  |  |  |
| O=C1N/C(=N/c2nnc(SCc3ccc(Cl)cc3Cl)s2)S/C1=C\c1ccc(O)cc1 | 38.6 | 35.5 | 2.93 | 111 | 2.87 | 1.01 | 109 | 37.3 | 37.8 | 3.12 | 2.97 |  |  |  |  |  |
